Entries after “also recorded” stand apart in the source; their conditions may differ.
Legend:
[1] = molecular target: T1, Cytosol Androgen Receptor of the Castrate Adult Rat Ventral Prostate (Rattus norvegicus, UniProt P15207); experiment: Relative binding affinity for androgen receptor (competition with 3H-dihydrotestosterone); set-up: species or system rat (Charles River CD)
T1 construct: Several ventral prostate glands pooled for each assay; tissue Charles River (animals, strain CD); host or cells: ventral prostate cytosol of castrated adult male rats
T1 sequence (P15207 1-902): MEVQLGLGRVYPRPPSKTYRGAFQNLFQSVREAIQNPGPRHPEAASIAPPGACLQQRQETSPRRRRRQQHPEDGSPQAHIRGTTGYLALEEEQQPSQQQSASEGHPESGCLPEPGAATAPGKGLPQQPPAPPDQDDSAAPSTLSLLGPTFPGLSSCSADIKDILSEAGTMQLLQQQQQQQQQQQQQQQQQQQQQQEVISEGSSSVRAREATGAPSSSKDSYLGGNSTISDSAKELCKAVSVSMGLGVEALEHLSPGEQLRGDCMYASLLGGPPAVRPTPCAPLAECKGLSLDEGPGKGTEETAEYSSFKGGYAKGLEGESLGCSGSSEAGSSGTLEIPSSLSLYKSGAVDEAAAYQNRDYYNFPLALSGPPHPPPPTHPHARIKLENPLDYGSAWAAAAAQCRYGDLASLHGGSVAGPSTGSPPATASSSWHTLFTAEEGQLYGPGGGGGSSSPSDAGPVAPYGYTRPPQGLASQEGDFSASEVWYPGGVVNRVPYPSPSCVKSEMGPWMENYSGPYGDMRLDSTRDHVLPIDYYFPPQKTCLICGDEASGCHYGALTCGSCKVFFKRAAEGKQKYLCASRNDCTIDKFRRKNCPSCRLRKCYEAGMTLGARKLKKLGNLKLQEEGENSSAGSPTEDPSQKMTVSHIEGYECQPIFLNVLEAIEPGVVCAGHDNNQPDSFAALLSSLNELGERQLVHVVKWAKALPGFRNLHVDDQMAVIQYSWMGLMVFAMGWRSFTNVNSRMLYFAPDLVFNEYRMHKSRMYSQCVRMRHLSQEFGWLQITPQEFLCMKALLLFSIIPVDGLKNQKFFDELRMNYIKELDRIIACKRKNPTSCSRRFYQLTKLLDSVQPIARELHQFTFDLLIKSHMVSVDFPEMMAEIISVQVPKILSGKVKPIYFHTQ
Experimental: The specific conditions, reagents, etc. used to derive the data from Table 2 are as follows:
Animal Species. Adult male rat (Charles River CD).
Pretreatment. Castration 17-24 hour prior to sacrifice.
Tissue. Ventral prostate. Amount of tissue: 0.4 g/rat. Several ventral prostate glands pooled for each assay.
Buffer. 0.05M Tris HCl, 0.05M Trisbase; 1 mM EDTA; 0.15 mM Dithiothreitol.
Homogenization. Three five-second bursts with 30 second cooling periods between bursts using Brinkman Polytron Pt. 10 (3.5 setting).
Temperature. 0°-4° C. all steps.
Centrifugation. 45,000 rpm for 1 hr, 50 Ti rotor, Beckman L8-80 ultracentrifuge.
Radiolabel. 1,2-^3 H-Dihydrotesterone-25,00 cpm/0.1 ml.
Amounts of Addition. 0.1 ml cytosol, 0.1 ml ^3 H-dihydrotestosterone, 0.1 ml test compound, 0.3 ml buffer.
Incubation. 16-18 hours at 0°-4° C.
Concentrations. 1×10^-10 M to 1×10^-5 (7 concentrations).
Method. Charcoal adsorption method used to remove unbound radioactivity. Five-tenths ml dextran-coated charcoal (0.5% Norit A and 0.05% dextran T-70) added to all except total radioactivity tubes (0.5 ml buffer added), tubes vortexed […], allowed to sit 10 min and centrifuged 10 min at 2000 rpm in Beckman TJ-6 centrifuge at 0°-4° C.

estrous cycle of rats = experiment: Suppression of estrous cycles in rats; assay type: in vivo, rat; details: sc, 10 days
Experimental: A control group was treated in parallel with 0.2 ml peanut oil per day. Treatment commenced at metestrus and vaginal smears were taken each morning during the 10-day treatment period and for 16 to 18 days thereafter.

With `C#C[C@]1(C(C)=O)CC[C@H]2[C@@H]3CCC4=CC(=O)CC[C@]4(C)[C@H]3CC[C@@]21C` [17α-Ethynylprogesterone, 17α-ethynylprogesterone] the RBA ([1]; 16-18 hours at 0°-4° C., 5α-dihydrotestosterone = 100) was 0.09%, the “androgen receptor binding affinity / androgenicity, in words” value ([1]; male rat androgenic receptors) was “extremely low binding affinity for male rat androgenic receptors” and the “estrous cycle during treatment, in words” value (estrous cycle of rats; 50 μg/day) was “continued regular four-day cycles during treatment”. The “estrous cycle during treatment, in words” value (estrous cycle of rats; 100 μg/day) was “estrous cycles were disrupted; also recorded: some degree of follicular development occurred, but that ovulation was inhibited during treatment”, the “estrous cycle during treatment, in words” value (estrous cycle of rats; 250 μg/day) was “estrous cycles were disrupted” and the “estrous cycle during treatment, in words” value (estrous cycle of rats; 500 μg/day) was “estrous cycles were disrupted; also recorded: follicular development and ovulation were effectively suppressed”.
